This passage reports EC50 results from US10815222B2, “Compounds for use in the treatment of kinetoplastid infection” (C.N.C.C.S. S.c.a.r.l. COLLEZIONE NAZIONALE DEI COMPOSTI …, priority 2016, dated 2020).

SMILES strings stand for the structures.

The subject of the assay is Bloodstream form of Trypanosoma brucei, strain Lister 427. In words: Trypanosoma brucei growth inhibition assay (CellTiter-Glo, 24 h). The assay is classed as cell-based. The note with it: Trypanosoma brucei; T. Brucei Growth Inibition Assay, class symbols; read-out: T. Brucei GI EC50. Summed up: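 Bloodstream-form T. brucei Lister 427, 1500 parasites per well in supplemented IMDM with 10% FBS, were exposed to compound (DMSO ≤0.25% final) for 24 h at 37 °C. Viability was measured by CellTiter-Glo luminescence.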
A general note: Cellular ATP, detected with luciferase, serves as a proxy for viable cell number.
Usually EC50 stands for the concentration needed to bring the measured effect to its halfway point. As for `COc1nc2ccccc2cc1-c1cnc(C2CNCCN2C(=O)Cc2ccccc2)[nH]1` (stereo not shown), the 50% effective concentration (EC50) lay within 1010 to 5000 nM.

On to `COc1nc2ccccc2cc1-c1cnc(C2CN(S(C)(=O)=O)CCN2C(=O)Cc2ccccc2)[nH]1` (stereo not shown), for which the EC50 is 1010 to 5000 nM.

For `COc1nc2ccccc2cc1-c1cnc(C2CN(CC(F)F)CCN2C(=O)Cc2ccccc2)[nH]1` (stereo not shown), the EC50 lay in the range of 1010 to 5000 nM.

Regarding `CCn1cc(CN2CCC(c3ncc(-c4cc5ccccc5nc4OC)[nH]3)N(C(=O)Cn3c(C(F)(F)F)nc4ccc(OC)cc43)CC2)cn1` (stereo not shown), the 50% effective concentration (EC50) was 510 to 1000 nM.

With `COc1ccc2nc(C(F)(F)F)n(CC(=O)N3CCN(Cc4cn[nH]c4)CCC3c3ncc(-c4cc5ccccc5nc4OC)[nH]3)c2c1` (stereo not shown), the concentration giving a half-maximal response (EC50) lay in the range of 100 to 500 nM.

For `COc1ccc2nc(C(F)(F)F)n(CC(=O)N3CCN(Cc4cnn(C)c4C)CCC3c3ncc(-c4cc5ccccc5nc4OC)[nH]3)c2c1` (stereo not shown), the EC50 lay within 100 to 500 nM.

As for `COc1nc2ccccc2cc1-c1cnc(C2CN(C(C)=O)CCN2C(=O)Cc2ccccc2)[nH]1` (stereo not shown), the EC50 was in the range of 1010 to 5000 nM.

As to `COc1ccc2nc(C(F)(F)F)n(CC(=O)N3CCN(C4CCCC4)CCC3c3ncc(-c4cc5ccccc5nc4OC)[nH]3)c2c1` (stereo not shown), the EC50 is 100 to 500 nM.

For the compound `COc1nc2ccccc2cc1-c1cnc(C2CN(C(C)C)CCN2C(=O)Cc2ccccc2)[nH]1` (stereo not shown), the concentration for a half-maximal effect (EC50) lay within 1010 to 5000 nM.

On to `COc1ccc2nc(C(F)(F)F)n(CC(=O)N3CCN(C(C)C)CCC3c3ncc(-c4cc5ccccc5nc4OC)[nH]3)c2c1` (stereo not shown), for which the EC50 lay in the range of 100 to 500 nM.

Turning to `CN1CCN(C(=O)Cc2ccccc2)C(c2ncc(-c3ccc4ccccc4c3)[nH]2)C1` (stereo not shown), the half-maximal effective concentration (EC50) lay in the range of 1010 to 5000 nM.

In the case of `CN1CCN(C(=O)Cc2cnc3ccccc3c2)C(c2ncc(-c3ccc4ccccc4c3)[nH]2)C1` (stereo not shown), the 50% effective concentration (EC50) was in the range of 1010 to 5000 nM.

As to `CN1CCN(C(=O)Cc2ccccc2)C(c2ncc(-c3ccc4ncccc4c3)[nH]2)C1` (stereo not shown), the EC50 fell in the range of 1010 to 5000 nM.

For the compound `CN1CCN(C(=O)Cn2cc3ccccc3n2)C(c2ncc(-c3ccc4ccccc4c3)[nH]2)C1` (stereo not shown), the concentration for a half-maximal effect (EC50) lay within 1010 to 5000 nM.

In the case of `COc1ccc2nc(C(F)(F)F)n(CC(=O)N3C[C@@H](NC4CCOC4)CC[C@H]3c3ncc(-c4cc5ccccc5nc4OC)[nH]3)c2c1` (stereo partly shown), the EC50 was 510 to 1000 nM.

For `COc1ccc2nc(C(F)(F)F)n(CC(=O)N3CCN(Cc4cnn(C)c4)CCC3c3ncc(-c4cc5ccccc5nc4OC)[nH]3)c2c1` (stereo not shown), the concentration giving a half-maximal response (EC50) is 100 to 500 nM.

`COc1ccc2nc(C(F)(F)F)n(CC(=O)N3CCN(Cc4cnc(C)s4)CCC3c3ncc(-c4cc5ccccc5nc4OC)[nH]3)c2c1` (stereo not shown): the EC50 lay in the range of 100 to 500 nM.

For `COc1ccc2nc(C(F)(F)F)n(CC(=O)N3CCN(Cc4cn(C)nn4)CCC3c3ncc(-c4cc5ccccc5nc4OC)[nH]3)c2c1` (stereo not shown), the concentration giving a half-maximal response (EC50) lay within 100 to 500 nM.

For `COc1ccc2nc(C)n(CC(=O)N3CC[C@H](N(C)Cc4cnccn4)C[C@H]3c3ncc(-c4cc5ccccc5nc4OC)[nH]3)c2c1`, the half-maximal effective concentration (EC50) fell in the range of 100 to 500 nM.

As for `COc1ccc2nc(C)n(CC(=O)N3CC[C@H](NCc4ccn(C)n4)C[C@H]3c3ncc(-c4cc5ccccc5nc4OC)[nH]3)c2c1`, the EC50 was in the range of 1010 to 5000 nM.

With `COc1ccc2nc(C)n(CC(=O)N3CCN(CC4CCOC4)C[C@H]3c3ncc(-c4ccc5ccccc5n4)[nH]3)c2c1` (stereo partly shown), the EC50 was 1010 to 5000 nM.

`COc1ccc2nc(C)n(CC(=O)N3CCN(C4CCOC4)C[C@H]3c3ncc(-c4cc5ccccc5nc4OC)[nH]3)c2c1` (stereo partly shown): the EC50 fell in the range of 100 to 500 nM.

Consider `COc1ccc2nc(C)n(CC(=O)N3CCN(CC4CCOC4)C[C@H]3c3ncc(-c4ccc(-c5ccccc5)nc4OC)[nH]3)c2c1` (stereo partly shown), for which the EC50 lay in the range of 510 to 1000 nM.

For `COc1ccc2nc(C)n(CC(=O)N3CC[C@H](NCC4CCOC4)C[C@H]3c3ncc(-c4cc5ccccc5nc4OC)[nH]3)c2c1` (stereo partly shown), the concentration giving a half-maximal response (EC50) lay in the range of 1010 to 5000 nM.

With `CN1CCN(C(=O)Cc2noc3ccccc23)C(c2ncc(-c3ccc4ccccc4c3)[nH]2)C1` (stereo not shown), the half-maximal effective concentration (EC50) was in the range of 1010 to 5000 nM.

On to `COc1ccc2[nH]c(C)c(CC(=O)N3CCN(CCCC(=O)O)CC3c3ncc(-c4ccc5ccccc5c4)[nH]3)c2c1` (stereo not shown), for which the EC50 was in the range of 1010 to 5000 nM.

Take `COc1ccccc1C(=O)N1CCN(C)CC1c1ncc(-c2ccc3ccccc3c2)[nH]1` (stereo not shown): the EC50 fell in the range of 1010 to 5000 nM.

In the case of `COc1nc2ccccc2cc1-c1cnc([C@@H]2CCN(Cc3ccn(C)n3)CCN2C(=O)[C@](OC)(c2ccccc2)C(F)(F)F)[nH]1`, the EC50 was 1010 to 5000 nM.

`COc1ccc2nc(C)n(CC(=O)N3CCN(CCn4cccn4)C[C@H]3c3ncc(-c4cc5ccccc5nc4OC)[nH]3)c2c1`: the EC50 was 100 to 500 nM.

With `COc1ccc2nc(C(F)(F)F)n(CC(=O)N3CCN(C4CCN(C)CC4)C[C@H]3c3ncc(-c4cc5ccccc5nc4OC)[nH]3)c2c1`, the concentration giving a half-maximal response (EC50) is 100 to 500 nM.

Turning to `COc1ccc2nc(C)n(CC(=O)N3CCN(Cc4cn(C)nn4)C[C@H]3c3ncc(-c4cc5ccccc5nc4OC)[nH]3)c2c1`, the EC50 fell in the range of 510 to 1000 nM.

As for `COc1ccc2nc(C)n(CC(=O)N3CCN(C4CCOCC4)C[C@H]3c3ncc(-c4cc5ccccc5nc4OC)[nH]3)c2c1`, the half-maximal effective concentration (EC50) fell in the range of 100 to 500 nM.

As for `COc1nc2ccccc2cc1-c1cnc([C@@H]2CCN(Cc3ccn(C)n3)CCN2C(=O)[C@@](OC)(c2ccccc2)C(F)(F)F)[nH]1`, the EC50 lay in the range of 1010 to 5000 nM.

With `COc1nc2ccccc2cc1-c1cnc([C@@H]2CN(C[C@@H]3CCOC3)CCN2C(=O)Cn2c(C(F)(F)F)nc3ccccc32)[nH]1` (single isomer, unassigned), the EC50 was < 100 nM.

Take `COc1nc2ccccc2cc1-c1cnc([C@@H]2CN(C[C@H]3CCOC3)CCN2C(=O)Cn2c(C(F)(F)F)nc3ccccc32)[nH]1` (single isomer, unassigned): the 50% effective concentration (EC50) is < 100 nM.

Regarding `COc1nc2ccccc2cc1-c1cnc(C2CN(C)CCN2C(=O)Cc2ccccc2)[nH]1` (stereo not shown) [1-(2-(5-(2-methoxyquinolin-3-yl)-1H-imidazol-2-yl)-4-methylpiperazin-1-yl)-2-phenylethan-1-one], the 50% effective concentration (EC50) is 1010 to 5000 nM.

For the compound `COc1ccc2nc(C(F)(F)F)n(CC(=O)N3CCN(C4CCS(=O)(=O)CC4)CCC3c3ncc(-c4cc5ccccc5nc4OC)[nH]3)c2c1` (stereo not shown) [1-(4-(1,1-dioxidotetrahydro-2H-thiopyran-4-yl)-7-(5-(2-methoxyquinolin-3-yl)-1H-imidazol-2-yl)-1,4-diazepan-1-yl)-2-(6-methoxy-2-(trifluoromethyl)-1H-benzo[d]imidazol-1-yl)ethan-1-one], the 50% effective concentration (EC50) was < 100 nM.

For the compound `COc1ccc2nc(C(F)(F)F)n(CC(=O)N3CCN(CCn4cccn4)CCC3c3ncc(-c4cc5ccccc5nc4OC)[nH]3)c2c1` (stereo not shown) [1-(4-(2-(1H-pyrazol-1-yl)ethyl)-7-(5-(2-methoxyquinolin-3-yl)-1H-imidazol-2-yl)-1,4-diazepan-1-yl)-2-(6-methoxy-2-(trifluoromethyl)-1H-benzo[d]imidazol-1-yl)ethan-1-one], the EC50 is < 100 nM.

For the compound `COc1ccc2nc(C(F)(F)F)n(CC(=O)N3CCN(Cc4ccon4)CCC3c3ncc(-c4cc5ccccc5nc4OC)[nH]3)c2c1` (stereo not shown) [1-(4-(isoxazol-3-ylmethyl)-7-(5-(2-methoxyquinolin-3-yl)-1H-imidazol-2-yl)-1,4-diazepan-1-yl)-2-(6-methoxy-2-(trifluoromethyl)-1H-benzo[d]imidazol-1-yl)ethan-1-one], the half-maximal effective concentration (EC50) was < 100 nM.

With `COc1ccc2nc(C(F)(F)F)n(CC(=O)N3CCN(C4CCC4)CCC3c3ncc(-c4cc5ccccc5nc4OC)[nH]3)c2c1` (stereo not shown) [1-(4-cyclobutyl-7-(5-(2-methoxyquinolin-3-yl)-1H-imidazol-2-yl)-1,4-diazepan-1-yl)-2-(6-methoxy-2-(trifluoromethyl)-1H-benzo[d]imidazol-1-yl)ethan-1-one], the EC50 was < 100 nM.

Turning to `COc1nc2ccccc2cc1-c1cnc(C2CCN(Cc3ccn(C)n3)CCN2C(=O)Cn2c(C(F)(F)F)nc3ccccc32)[nH]1` (stereo not shown) [1-(7-(5-(2-methoxyquinolin-3-yl)-1H-imidazol-2-yl)-4-((1-methyl-1H-pyrazol-3-yl)methyl)-1,4-diazepan-1-yl)-2-(2-(trifluoromethyl)-1H-benzo[d]imidazol-1-yl)ethan-1-one], the EC50 is < 100 nM.

On to `COc1nc2ccccc2cc1-c1cnc([C@@H]2CN(CC3CCOC3)CCN2C(=O)Cn2c(C(F)(F)F)nc3ccccc32)[nH]1` (stereo partly drawn) [1-((2S)-2-(5-(2-methoxyquinolin-3-yl)-1H-imidazol-2-yl)-4-((tetrahydrofuran-3-yl)methyl)piperazin-1-yl)-2-(2-(trifluoromethyl)-1H-benzo[d]imidazol-1-yl)ethan-1-one], for which the half-maximal effective concentration (EC50) is < 100 nM.

Consider `COc1nc2ccccc2cc1-c1cnc([C@@H]2CN(CC3CCOC3)CCN2C(=O)Cn2c(C)nc3ccc(C(F)(F)F)cc32)[nH]1` (stereo partly drawn) [1-((2S)-2-(5-(2-methoxyquinolin-3-yl)-1H-imidazol-2-yl)-4-((tetrahydrofuran-3-yl)methyl)piperazin-1-yl)-2-(2-methyl-6-(trifluoromethyl)-1H-benzo[d]imidazol-1-yl)ethan-1-one], for which the EC50 was < 100 nM.

With `COc1ccc2nc(C)n(CC(=O)N3CCN(CC4CCOC4)C[C@H]3c3ncc(-c4ccc5ncsc5c4)[nH]3)c2c1` (stereo partly drawn) [1-((2S)-2-(5-(benzo[d]thiazol-6-yl)-1H-imidazol-2-yl)-4-((tetrahydrofuran-3-yl)methyl)piperazin-1-yl)-2-(6-methoxy-2-methyl-1H-benzo[d]imidazol-1-yl)ethan-1-one], the EC50 fell in the range of 1010 to 5000 nM.

Turning to `COc1ccc2nc(C)n(CC(=O)N3CCN(CC4CCOC4)C[C@H]3c3ncc(-c4cc5ccccc5cn4)[nH]3)c2c1` (stereo partly drawn) [1-((2S)-2-(5-(isoquinolin-3-yl)-1H-imidazol-2-yl)-4-((tetrahydrofuran-3-yl)methyl)piperazin-1-yl)-2-(6-methoxy-2-methyl-1H-benzo[d]imidazol-1-yl)ethan-1-one], the concentration for a half-maximal effect (EC50) fell in the range of 100 to 500 nM.

Consider `COc1ccc2nc(C(F)(F)F)n(CC(=O)N3CCN(CC4CCN(C(C)=O)C4)C[C@H]3c3ncc(-c4cc5ccccc5nc4OC)[nH]3)c2c1` (stereo partly drawn) [1-((2S)-4-((1-acetylpyrrolidin-3-yl)methyl)-2-(5-(2-methoxyquinolin-3-yl)-1H-imidazol-2-yl)piperazin-1-yl)-2-(6-methoxy-2-(trifluoromethyl)-1H-benzo[d]imidazol-1-yl)ethan-1-one], for which the EC50 is < 100 nM.
